In the NIST ThermoML archive (doi:10.1016/j.tca.2014.12.004):
Numbers after ± are expanded uncertainties.

How the values were obtained:
[1] = Molar enthalpy of transition or fusion; conditions: Crystal; DSC
[2] = for thermal conductivity: 101.33 kPa

Q: For `CCCCCCCCCCCC(=O)O` [dodecanoic acid], which “Molar enthalpy of transition or fusion” value [1] is on record?
A: 7.56 ± 0.621 kcal/mol

Q: What about the thermal conductivity ([2]; 303.15 K, Crystal) of the same molecule?
A: 0.216 ± 0.016 W/m/K

Q: And the thermal conductivity ([2]; 308.15 K, Crystal)?
A: 0.218 ± 0.016 W/m/K

Q: What about the thermal conductivity ([2]; 313.15 K, Crystal) of the same molecule?
A: 0.208 ± 0.015 W/m/K

Q: What about the thermal conductivity ([2]; 323.15 K, Liquid) of the same molecule?
A: 0.14 ± 0.01 W/m/K

Q: What about the thermal conductivity ([2]; 333.15 K, Liquid) of the same molecule?
A: 0.14 ± 0.01 W/m/K

Q: What about the Normal melting temperature ([2]; Crystal, DTA) of the same molecule?
A: 42.80 ± 5 °C
